Measured values taken from ChEMBL document CHEMBL1201862, “PubChem BioAssay data set” (2004).
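These data come from cells grown in 96-well plates and exposed to compound for 48 hours at five concentrations. The concentration for 50% growth inhibition is given as GI50.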 Active and inactive are the calls of the source. Cut-off read from the data, not from the text of the source: active = GI50 up to about 1.1 µM and inactive = higher.

What was measured:
Experiment in all cases: growth of human tumour cells (NCI), 48 h
786-0 = tested on: 786-0
A498 = tested on: A498
A549 = tested on: A549
ACHN = tested on: ACHN
BT-549 = tested on: BT-549
CAKI-1 = tested on: CAKI-1
CCRF-CEM = tested on: CCRF-CEM
COLO 205 = tested on: COLO 205
DU-145 = tested on: DU-145
HCC 2998 = tested on: HCC 2998
HCT-116 = tested on: HCT-116
HCT-15 = tested on: HCT-15
HL-60 = tested on: HL-60
HOP-92 = tested on: HOP-92
HT-29 = tested on: HT-29
Hs-578T = tested on: Hs-578T
IGROV-1 = tested on: IGROV-1
K562 = tested on: K562
KM12 = tested on: KM12
LOX IMVI = tested on: LOX IMVI
M14 = tested on: M14
MCF7 = tested on: MCF7
MDA-MB-231 = tested on: MDA-MB-231
MDA-N = tested on: MDA-N
MOLT-4 = tested on: MOLT-4
Malme-3M = tested on: Malme-3M
NCI-H226 = tested on: NCI-H226
NCI-H23 = tested on: NCI-H23
NCI-H460 = tested on: NCI-H460
NCI-H522 = tested on: NCI-H522
NCI/ADR-RES = tested on: NCI/ADR-RES
OVCAR-3 = tested on: OVCAR-3
OVCAR-4 = tested on: OVCAR-4
OVCAR-5 = tested on: OVCAR-5
PC-3 = tested on: PC-3
RPMI-8226 = tested on: RPMI-8226
RXF 393 = tested on: RXF 393
SF-268 = tested on: SF-268
SF-539 = tested on: SF-539
SK-MEL-28 = tested on: SK-MEL-28
SK-MEL-2 = tested on: SK-MEL-2
SK-MEL-5 = tested on: SK-MEL-5
SK-OV-3 = tested on: SK-OV-3
SNB-19 = tested on: SNB-19
SNB-75 = tested on: SNB-75
SR = tested on: SR
SW-620 = tested on: SW-620
T47D = tested on: T47D
TK-10 = tested on: TK-10
U-251 = tested on: U-251
UACC-257 = tested on: UACC-257
UACC-62 = tested on: UACC-62
UO-31 = tested on: UO-31
EKVX = tested on: EKVX
HOP-62 = tested on: HOP-62
OVCAR-8 = tested on: OVCAR-8
SF-295 = tested on: SF-295
SN12C = tested on: SN12C
MDA-MB-435 = tested on: MDA-MB-435

Measured: GI50

O=c1cc(NNc2ccccc2F)[nH]c(=O)[nH]1
inactive: 786-0 15.3 µM | A498 59.8 µM | A549 55 µM | ACHN 18.3 µM | BT-549 17.5 µM | CAKI-1 13 µM | CCRF-CEM 17.5 µM | COLO 205 19.2 µM | DU-145 43.3 µM | HCC 2998 17.9 µM | HCT-116 16.9 µM | HL-60 11.9 µM | HOP-92 15.7 µM | HT-29 17.9 µM | Hs-578T 21.9 µM | IGROV-1 16.7 µM | K562 21.8 µM | KM12 15.3 µM | LOX IMVI 16 µM | M14 17.7 µM | MCF7 6.61 µM | MDA-MB-231 16.3 µM | MDA-N 18.5 µM | MOLT-4 23.4 µM | Malme-3M 18.8 µM | NCI-H226 21.2 µM | NCI-H23 17.3 µM | NCI-H522 16.2 µM | NCI/ADR-RES 16.6 µM | OVCAR-3 17.7 µM | OVCAR-4 17.7 µM | OVCAR-5 19.5 µM | PC-3 18.9 µM | RPMI-8226 17.8 µM | RXF 393 1.26 µM | SF-268 19.4 µM | SF-539 16.8 µM | SK-MEL-28 20.5 µM | SK-MEL-2 16.7 µM | SK-MEL-5 22.3 µM | SK-OV-3 21.1 µM | SNB-19 > 100 µM | SNB-75 25.9 µM | SR 1.35 µM | SW-620 18 µM | TK-10 14.4 µM | U-251 17.7 µM | UACC-257 17.7 µM | UACC-62 17.1 µM | UO-31 12.2 µM
active: NCI-H460 0.0667 µM | T47D 0.679 µM
16 µM: HCT-15

FC(F)(F)c1cccc(COCCN2CCN(Cc3cccc(C(F)(F)F)c3)CC2)c1
16.2 µM: HCT-15
inactive: 786-0 15.3 µM | A498 14.9 µM | A549 16.2 µM | ACHN 15.7 µM | BT-549 15.6 µM | CAKI-1 17.5 µM | CCRF-CEM 14.1 µM | COLO 205 15.7 µM | DU-145 17 µM | EKVX 11.1 µM | HCC 2998 17 µM | HCT-116 14.4 µM | HL-60 36.6 µM | HOP-62 20 µM | HT-29 21.7 µM | Hs-578T 19.5 µM | IGROV-1 15.6 µM | K562 11.8 µM | KM12 18.1 µM | M14 30.1 µM | MCF7 15.7 µM | MDA-MB-231 19.3 µM | MDA-N 15.9 µM | MOLT-4 7.91 µM | Malme-3M 8.09 µM | NCI-H226 17 µM | NCI-H23 17.9 µM | NCI-H460 16.3 µM | NCI-H522 13 µM | NCI/ADR-RES 18.6 µM | OVCAR-3 20 µM | OVCAR-4 17.7 µM | OVCAR-5 16.7 µM | OVCAR-8 18.7 µM | PC-3 9.33 µM | SF-268 15.3 µM | SF-295 19.7 µM | SF-539 18 µM | SK-MEL-28 17.8 µM | SK-MEL-5 15.8 µM | SK-OV-3 17.3 µM | SN12C 18.5 µM | SNB-19 15.6 µM | SNB-75 13.5 µM | SR 23.4 µM | SW-620 13.1 µM | T47D 16.3 µM | TK-10 13.7 µM | U-251 18.1 µM | UACC-257 17.4 µM | UACC-62 15.3 µM | UO-31 12.3 µM

O=C1/C(=C\c2cccc(Oc3ccccc3)c2)SC(c2ccccc2)N1c1ccccc1 (configuration not stated)
inactive: 786-0 > 100 µM | A498 > 100 µM | A549 > 100 µM | ACHN > 100 µM | BT-549 > 100 µM | CAKI-1 > 100 µM | CCRF-CEM 22 µM | COLO 205 > 100 µM | DU-145 > 100 µM | EKVX 57 µM | HCC 2998 > 100 µM | HCT-116 20.1 µM | HL-60 46.8 µM | HOP-62 > 100 µM | HOP-92 60.7 µM | HT-29 26.4 µM | Hs-578T > 100 µM | K562 23.3 µM | KM12 46.9 µM | LOX IMVI 31.9 µM | M14 71.6 µM | MCF7 30 µM | MDA-MB-231 > 100 µM | MDA-MB-435 33.7 µM | MDA-N 30.1 µM | MOLT-4 23.2 µM | Malme-3M > 100 µM | NCI-H226 > 100 µM | NCI-H23 92.5 µM | NCI-H460 > 100 µM | NCI-H522 17.1 µM | NCI/ADR-RES 75.3 µM | OVCAR-3 95.7 µM | OVCAR-4 75.2 µM | OVCAR-5 > 100 µM | OVCAR-8 42.2 µM | RPMI-8226 14.8 µM | RXF 393 69.5 µM | SF-268 > 100 µM | SF-295 > 100 µM | SF-539 26.5 µM | SK-MEL-28 81.1 µM | SK-MEL-2 > 100 µM | SK-MEL-5 27.1 µM | SK-OV-3 > 100 µM | SN12C > 100 µM | SNB-19 58.1 µM | SR 11.9 µM | SW-620 12.4 µM | T47D 52.5 µM | TK-10 > 100 µM | U-251 25.1 µM | UACC-257 52.1 µM | UACC-62 43.3 µM | UO-31 > 100 µM
77.3 µM: HCT-15
